# Measured values from patent US6458781B1, “Substituted diarylalkyl amides as calcium channel antagonists” (priority 1998, dated 2002).
# Where a name gives a salt, the structure may show the parent alone.
# Columns and labels:
# [1] = target: T1, N-type Ca2+ channels in cultured superior cervical ganglion (SCG) neurons (Rattus norvegicus, UniProt Q02294); test: Calcium current in superior cervical ganglion neurons (whole-cell voltage clamp); assay type: cell-based; settings: for inhibition at 1 µM: read-out: SCG Ca, % blockage at 1 μM; for inhibition at 10 µM: read-out: SCG Ca, % blockage at 10 μM; for IC50: read-out: SCG Ca, IC50
# T1 construct: from tissue
# Description: (§1) Electrophysiological techniques were used to measure the effects of experimental compounds on voltage-gated Ca^2+, […] , and K^+ channels. […] Sodium and potassium channel currents were measured from acutely dissociated SCG neurons.
# (§2) Dissociation of the neurons from the ganglia was accomplished using a 30 to 45 minute treatment in 0.25% trypsin, similar to methods outlined in Higgins, et al. (see Higgins D. et al. “Tissue culture of mammalian autonomic neurons.” In Banker G. and Goslin K. (Eds), Culturing Nerve Cells, Cambridge, Mass., MIT Press [1991]).
# (§3) Ca^2+, Na^+, and K^+ channel currents in SCG neurons were measured using conventional single electrode whole-cell voltage-clamp techniques, outlined in Hamill et al., (see Hamill O. P. et al. “Improved patch-clamp techniques for high resolution current recordings from cells and cell-free membrane patches.”Pflugers Arch., 1981;391:85-100). For Ca^2+ channel experiments, the external bathing solution contained tetraethylammonium chloride (100 mM), choline chloride (52 mM), NaCl (15 mM), HEPES (10 mM), glucose (5.6 mM), CaCl2 (2 mM), and MgCl2 (0.8 mM), pH 7.35 with KOH; with the internal pipette solution containing cesium methane sulfonate (140 mM), EGTA (10 mM), and HEPES (10 mM), supplemented with 5 mM Mg^2+-ATP on the day of the experiment, pH 7.4 with CsOH. For Na^+ and K^+ channel experiments, the external bathing solution contained NaCl (150 mM), KCl (5 mM), MgCl2 (1.1 mM), CaCl2 (2.6 mM), Na-HEPES (10 mM), and glucose (10 mM), pH 7.4; with the internal pipette solution containing KCl (80 mM), K-gluconate (50 mM), HEPES (10 mM), and EGTA (10 mM), pH 7.4 with KOH. Experimental compounds were diluted into the external solution and applied to the soma of cells by local perfusion from large diameter (20-50 μm) glass micropipettes or from a U-tube applicator.
# After obtaining a whole-cell recording, Ca^2+ channels were elicited by stepping to test potentials between −40 and +20 mV for 120 msec from the holding potential of −90 mV to determine if the amplitude of the current and clamp control were adequate for evaluation of drug effects. Ca^2+ channel currents were evoked by stepping from a holding potentials between −65 mV and −55 mV to a test potential of +20 mV for 150 msec every 40 seconds. The amplitude of the Ca^2+ channel currents were compared before and during drug application and drug effects expressed as percent inhibition of the amplitude of control currents.
# [2] = tested on: K+ channels in SCG neurons; test: Potassium current in superior cervical ganglion neurons (whole-cell voltage clamp); assay type: cell-based, rat
# Description: as §1, §2, §3
# (§4) For Na^+ and K^+ channel currents, following the determination of the I/V relationship for each cell in control solution, currents were evoked from a holding potential between −65 and −55 mV by stepping every 10 sec to a test potential of either 0 mV for Na^+ or +50 mV for K^+ current for a duration of 35 msec. Peak inward current was measured for Na^+ and sustained current for K^+ channel currents. […] Test compounds were applied until steady-state block was achieved. Data were expressed as percent inhibition of control amplitudes for Na^+ and K^+ channel currents.
# [3] = target: T2, L-type calcium channels in A10 cells (Rattus norvegicus, UniProt P22002); test: L-type Ca2+ channel blocking potency in A10 cells (FLIPR); assay type: cell-based; settings: read-out: FLPA10 IC50
# T2 construct: which endogenously expresses L-type calcium channels; host or cells: A10 rat embryonic thoracic aorta smooth muscle cells
# Summary of the method: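 Rat A10 aortic smooth-muscle cells endogenously expressing L-type channels were loaded with Oregon Green BAPTA-1 and preincubated with compound for 5 min at 35 °C. Cells were then depolarized with 140 mM KCl buffer. Summed fluorescence above basal over 120 s gave % inhibition versus buffer-treated stimulated wells, with zero influx defined by 1.0×10^−6 M nitrendipine.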
# [4] = tested on: Na+ channels in SCG neurons; test: Sodium current in superior cervical ganglion neurons (whole-cell voltage clamp); assay type: cell-based, rat
# Description: as §1, §2, §3, §4
# T1 sequence (Q02294 whole entry): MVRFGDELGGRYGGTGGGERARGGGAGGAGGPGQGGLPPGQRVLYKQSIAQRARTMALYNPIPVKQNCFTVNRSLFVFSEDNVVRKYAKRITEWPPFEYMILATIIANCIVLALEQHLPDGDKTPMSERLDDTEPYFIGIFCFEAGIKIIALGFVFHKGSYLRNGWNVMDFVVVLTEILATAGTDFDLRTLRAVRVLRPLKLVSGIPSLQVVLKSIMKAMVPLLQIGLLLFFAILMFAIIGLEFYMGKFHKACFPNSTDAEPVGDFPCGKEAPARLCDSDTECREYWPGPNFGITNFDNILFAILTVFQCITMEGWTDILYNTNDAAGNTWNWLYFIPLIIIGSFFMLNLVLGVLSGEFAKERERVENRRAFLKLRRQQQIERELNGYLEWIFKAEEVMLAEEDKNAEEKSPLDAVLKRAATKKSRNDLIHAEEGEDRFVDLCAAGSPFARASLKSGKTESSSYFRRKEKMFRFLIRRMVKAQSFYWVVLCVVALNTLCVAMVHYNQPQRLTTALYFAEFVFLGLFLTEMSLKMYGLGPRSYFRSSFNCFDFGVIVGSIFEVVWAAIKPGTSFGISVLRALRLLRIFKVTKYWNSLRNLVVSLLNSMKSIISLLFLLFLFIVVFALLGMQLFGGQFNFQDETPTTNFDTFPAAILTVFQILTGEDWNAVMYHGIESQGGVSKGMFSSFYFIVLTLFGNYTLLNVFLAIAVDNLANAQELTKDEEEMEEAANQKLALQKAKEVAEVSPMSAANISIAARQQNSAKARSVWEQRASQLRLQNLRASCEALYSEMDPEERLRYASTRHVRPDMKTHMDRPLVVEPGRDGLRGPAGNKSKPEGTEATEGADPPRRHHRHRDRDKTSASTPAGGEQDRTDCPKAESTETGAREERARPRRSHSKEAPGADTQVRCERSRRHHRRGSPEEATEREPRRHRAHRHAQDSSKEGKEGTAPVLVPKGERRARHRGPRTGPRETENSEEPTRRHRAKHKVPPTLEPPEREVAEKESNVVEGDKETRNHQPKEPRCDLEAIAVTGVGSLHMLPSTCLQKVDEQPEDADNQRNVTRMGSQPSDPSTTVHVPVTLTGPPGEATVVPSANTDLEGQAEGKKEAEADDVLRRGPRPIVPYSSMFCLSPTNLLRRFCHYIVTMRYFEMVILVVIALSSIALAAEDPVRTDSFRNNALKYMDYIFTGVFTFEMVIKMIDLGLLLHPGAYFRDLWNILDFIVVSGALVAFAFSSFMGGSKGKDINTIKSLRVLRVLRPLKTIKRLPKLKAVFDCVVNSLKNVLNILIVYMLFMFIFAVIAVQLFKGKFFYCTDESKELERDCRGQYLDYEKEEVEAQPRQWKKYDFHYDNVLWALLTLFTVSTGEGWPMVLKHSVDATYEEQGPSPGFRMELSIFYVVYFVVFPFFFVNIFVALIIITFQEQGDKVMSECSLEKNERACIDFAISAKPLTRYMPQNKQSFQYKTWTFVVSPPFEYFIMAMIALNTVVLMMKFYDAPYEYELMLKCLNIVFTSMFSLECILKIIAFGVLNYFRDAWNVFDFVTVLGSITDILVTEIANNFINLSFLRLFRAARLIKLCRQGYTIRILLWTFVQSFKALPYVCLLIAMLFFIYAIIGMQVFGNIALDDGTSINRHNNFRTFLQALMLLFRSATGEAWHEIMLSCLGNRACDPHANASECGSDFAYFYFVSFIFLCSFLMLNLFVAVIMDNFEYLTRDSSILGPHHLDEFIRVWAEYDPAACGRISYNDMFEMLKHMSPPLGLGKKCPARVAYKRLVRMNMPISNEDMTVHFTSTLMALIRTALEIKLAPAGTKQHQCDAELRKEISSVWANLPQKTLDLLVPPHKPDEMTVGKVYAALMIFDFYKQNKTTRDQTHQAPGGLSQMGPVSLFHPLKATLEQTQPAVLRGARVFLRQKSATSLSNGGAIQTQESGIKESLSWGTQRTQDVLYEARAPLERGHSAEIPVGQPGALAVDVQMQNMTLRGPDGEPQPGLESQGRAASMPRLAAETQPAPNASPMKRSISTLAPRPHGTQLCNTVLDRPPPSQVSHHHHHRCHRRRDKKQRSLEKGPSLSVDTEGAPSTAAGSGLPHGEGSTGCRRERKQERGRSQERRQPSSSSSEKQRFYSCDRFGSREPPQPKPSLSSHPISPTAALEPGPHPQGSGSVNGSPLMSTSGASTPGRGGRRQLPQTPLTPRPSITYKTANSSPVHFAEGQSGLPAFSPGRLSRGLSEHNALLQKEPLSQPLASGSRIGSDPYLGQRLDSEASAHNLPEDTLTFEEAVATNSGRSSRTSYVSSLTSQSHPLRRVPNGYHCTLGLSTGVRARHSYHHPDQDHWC
# T1 sequence (P54290 25-944 partner limits assumed): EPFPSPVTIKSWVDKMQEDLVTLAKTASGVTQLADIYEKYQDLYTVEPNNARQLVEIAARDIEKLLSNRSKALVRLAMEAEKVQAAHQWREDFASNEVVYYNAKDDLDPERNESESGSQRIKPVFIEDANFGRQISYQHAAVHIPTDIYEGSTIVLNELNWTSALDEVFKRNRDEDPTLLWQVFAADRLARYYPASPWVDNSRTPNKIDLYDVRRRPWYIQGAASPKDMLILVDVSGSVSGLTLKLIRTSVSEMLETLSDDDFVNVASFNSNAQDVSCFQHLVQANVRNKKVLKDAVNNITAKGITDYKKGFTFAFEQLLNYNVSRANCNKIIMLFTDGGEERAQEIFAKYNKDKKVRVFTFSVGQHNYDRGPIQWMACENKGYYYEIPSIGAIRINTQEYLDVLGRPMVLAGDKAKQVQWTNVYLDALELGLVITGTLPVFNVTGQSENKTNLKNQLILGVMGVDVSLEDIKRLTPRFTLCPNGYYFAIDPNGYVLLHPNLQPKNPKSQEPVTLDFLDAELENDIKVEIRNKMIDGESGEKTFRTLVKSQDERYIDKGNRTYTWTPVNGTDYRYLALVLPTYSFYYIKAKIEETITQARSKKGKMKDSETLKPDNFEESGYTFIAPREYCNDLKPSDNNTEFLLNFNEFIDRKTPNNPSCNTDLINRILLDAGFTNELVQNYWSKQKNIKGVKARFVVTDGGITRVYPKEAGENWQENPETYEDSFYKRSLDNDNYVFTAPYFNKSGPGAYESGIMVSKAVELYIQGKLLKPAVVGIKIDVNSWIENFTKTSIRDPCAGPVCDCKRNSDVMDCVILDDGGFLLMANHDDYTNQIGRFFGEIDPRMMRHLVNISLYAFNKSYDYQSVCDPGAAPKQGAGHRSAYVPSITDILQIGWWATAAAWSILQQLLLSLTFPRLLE
# T1 sequence (P54290 945-1091 partner limits assumed): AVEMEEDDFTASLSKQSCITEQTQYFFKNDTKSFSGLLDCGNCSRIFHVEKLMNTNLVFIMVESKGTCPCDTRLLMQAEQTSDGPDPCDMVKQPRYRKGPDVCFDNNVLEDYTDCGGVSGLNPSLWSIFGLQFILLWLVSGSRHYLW
# T1 sequence (P54287 whole entry partner): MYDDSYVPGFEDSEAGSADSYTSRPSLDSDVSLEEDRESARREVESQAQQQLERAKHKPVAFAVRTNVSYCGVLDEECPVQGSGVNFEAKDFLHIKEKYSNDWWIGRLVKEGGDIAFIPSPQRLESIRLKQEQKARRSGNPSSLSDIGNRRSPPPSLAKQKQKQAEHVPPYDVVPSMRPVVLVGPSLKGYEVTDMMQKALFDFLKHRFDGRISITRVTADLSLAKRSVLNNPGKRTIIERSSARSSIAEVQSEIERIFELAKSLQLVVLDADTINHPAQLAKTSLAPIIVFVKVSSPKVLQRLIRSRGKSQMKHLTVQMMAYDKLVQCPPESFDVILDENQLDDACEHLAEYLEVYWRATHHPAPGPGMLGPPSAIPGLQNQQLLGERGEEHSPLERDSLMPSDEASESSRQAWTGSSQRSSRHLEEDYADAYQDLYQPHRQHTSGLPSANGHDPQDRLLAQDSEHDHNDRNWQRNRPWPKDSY
Compound,inhibition at 1 µM [1] [%],inhibition at 10 µM [1] [%],IC50 [3] [nM],IC50 [1] [µM],IC50 [2] [µM],IC50 [4] [µM],"SCG K, % blockage at 10 μM [2] [% @ 10]","SCG Na, % blockage at 10 μM [4] [% @ 10]","SCG K, % blockage at 1 μM [2] [% @ 1]","SCG Na, % blockage at 1 μM ([4]; at 1 μM) [% @ 1]"
"CC(C)=CCN[C@@H](CC(C)C)C(=O)NCCCC(c1ccc(F)cc1)c1ccc(F)cc1 [Example 9, (S)-4-Methyl-2-(3-methyl-but-2-enylamino)-pentanoic acid [4,4-bis-(4-fluoro-phenyl)-butyl]-amide monohydrochloride]",,,390,53,9.1,8.5,,,,
"CN[C@@H](CC(C)C)C(=O)NCCCC(c1ccc(F)cc1)c1ccc(F)cc1 [Example 12, (S)-4-Methyl-2-methylamino-pentanoic acid [4,4-bis-(4-fluoro-phenyl)-butyl]-amide monohydrochloride]",3,94,600,,,,58,87,15,
"CC(C)C[C@@H](C(=O)NCCCC(c1ccc(F)cc1)c1ccc(F)cc1)N(C)Cc1ccc(C(C)(C)C)cc1.Cl [Example 14, (S)-2-[(4-tert-Butyl-benzyl)-methyl-amino]-4-methyl-pentanoic acid [4,4-bis-(4-fluoro-phenyl)-butyl]-amide monohydrochloride]",,8,> 3000,,,,−1,,,
"CC(C)CCN(C)[C@@H](CC(C)C)C(=O)NCCCC(c1ccc(F)cc1)c1ccc(F)cc1 [Example 28, (S)-4-Methyl-2-[methyl-(3-methyl-butyl)-amino]-pentanoic acid [4,4-bis-(4-fluoro-phenyl)-butyl]-amide monohydrochloride]",55,88,290,,,,47,90,3,5

# Continued, in another order:
inhibition at 1 µM [1] [%],inhibition at 10 µM [1] [%],IC50 [3] [nM],IC50 [1] [µM],IC50 [2] [µM],IC50 [4] [µM],Compound,"SCG K, % blockage at 10 μM [2] [% @ 10]","SCG Na, % blockage at 10 μM [4] [% @ 10]","SCG K, % blockage at 1 μM [2] [% @ 1]","SCG Na, % blockage at 1 μM ([4]; at 1 μM) [% @ 1]"
45,98,280,,,,"CC(C)C[C@H](N)C(=O)NCCCC(c1ccc(F)cc1)c1ccc(F)cc1 [Example 7, (S)-2-Amino-4-methyl-pentanoic acid [4,4-bis-(4-fluoro-phenyl)-butyl]-amide monohydrochloride]",90,,,
,,450,2.4,,,"CC(C)C[C@H](NCC1CCCCC1)C(=O)NCCCC(c1ccc(F)cc1)c1ccc(F)cc1 [Example 8, (S)-2-(Cyclohexylmethyl-amino)-4-methyl-pentanoic acid [4,4-bis-(4-fluoro-phenyl)-butyl]-amide monohydrochloride]",50,94,,
2.5,62,1200,,,,"CC(C)C[C@H](NC(=O)N1CCCCCC1)C(=O)N1CCN(C(c2ccc(F)cc2)c2ccc(F)cc2)CC1 [Example 31, (S)-Azepane-1-carboxylic acid (1-{4-[bis-(4-fluoro-phenyl)-methyl]-piperazine-1-carbonyl}-3-methyl-butyl)-amide]",,,,
18,72,360,,,,"CC(C)[C@H](NC(=O)N1CCCCCC1)C(=O)N1CCN(C(c2ccc(F)cc2)c2ccc(F)cc2)CC1 [Example 33, (S)-Azepane-1-carboxylic acid (1-{4-[bis-(4-fluoro-phenyl)-methyl]-piperazine-1-carbonyl}-2-methyl-propyl)-amide]",39,22,,
18,81,270,,,,"CC(C)C[C@@H](CN1CCN(C(c2ccc(F)cc2)c2ccc(F)cc2)CC1)NC(=O)N1CCCCCC1 [Example 36, (S)-Azepane-1-carboxylic acid (1-{4-[bis-(4-fluoro-phenyl)-methyl]-piperazin-1-ylmethyl}-3-methyl-butyl)-amide]",27,81,,
15,75,890,,,,"CC(C)C[C@@H](C(=O)N1CCN(C(c2ccc(F)cc2)c2ccc(F)cc2)CC1)N(C)C [Example 39, (S)-1-{4-[Bis-(4-fluoro-phenyl)-methyl]-piperazin-1-yl}-2-dimethylamino-4-methyl-pentan-1-one dihydrochloride]",,,6,
